The source of these data is US6613920B1, “Vitamin D derivatives with carbo- or heterocyclic substituents at C-25, process for their production, intermediate products and use for the production of pharmaceutical agents” (Schering Aktiengesellschaft, priority 1996, dated 2003).

Data set [1] deals with HL 60 cells. The data set is described as follows: differentiation induction of HL 60 cells to macrophages (NBT reduction). The following applies: DR = test substance dose / calcitriol dose for comparable semi-maximum actions; 96 hours incubation. The class given is cell-based, human. The method, then: The differentiation-stimulating action of calcitriol analogues is also detected quantitatively.
It is known in the literature [Mangelsdorf, D. J. et al., J. Cell.
HL 60 cells are cultivated in tissue culture medium (RPMI 10% fetal calf serum) at 37° C. in an atmosphere of 5% CO2 in air.
For substance testing, the cells are centrifuged off, and 2.0×10^5 cells/ml in phenol red-free tissue culture medium is taken up. The test substances are dissolved in ethanol and diluted with tissue culture medium without phenol red to the desired concentration. The dilution stages are mixed with the cell suspension at a ratio of 1:10, and 100 μl each of this cell suspension that is mixed with substance is pipetted into an indentation of a 96-hole plate. For control, a cell suspension is mixed analogously with the solvent.
After incubation for 96 hours at 37° C. in 5% CO2 in air, 100 μl of an NBT-TPA solution (nitro blue tetrazolium (NBT), final concentration in the batch of 1 mg/ml, tetradecanoyl phorbolmyristate-13-acetate (TPA), final concentration in the batch of 2×10^−7 mol/l) is pipetted into each indentation of the 96-hole plate in the cell suspension.
By incubation for 2 hours at 37° C. and 5% CO2 in air, NBT is reduced to insoluble formazan because of the intracellular oxygen radical release, stimulated by TPA, in the cells that are differentiated to macrophages.
To complete the reaction, the indentations of the 96-hole plate are suctioned off, and the cells are affixed to the bottom of the plate by adding methanol and dried after affixing. To dissolve the intracellular formazan crystals that are formed, 100 μl of potassium hydroxide (2 mol/l) and 100 μl of dimethyl sulfoxide are pipetted into each indentation and ultrasonically treated for 1 minute. The concentration of formazan is measured by spectrophotometry at 650 nm.
As a yardstick for the differentiation induction of HL 60 cells to macrophages, the concentration of formed formazan applies.

The subject of data set [2] is HL 60 cells. The data set is described as follows: antagonism of the action of calcitriol in HL 60 cells. The class given is cell-based, human. The source says:
In the series of 25-oxazole derivatives, the compounds with increasing chain length on the heterocycle in the case of constantly good receptor affinity show considerably weaker differentiation-stimulating agonistic activity in HL 60 cells (Tab. 1). […] This property is continued with increasing chain length in radical Z of general formula I.

In data set [3] the target is T1, calcitriol receptor (specific receptor protein from the intestines of juvenile pigs) (Sus scrofa, UniProt A3RGC1).
T1 construct: a specific receptor protein from the intestines of juvenile pigs; from tissue; host or cells: intestines of juvenile pigs
T1 sequence (A3RGC1 1-427): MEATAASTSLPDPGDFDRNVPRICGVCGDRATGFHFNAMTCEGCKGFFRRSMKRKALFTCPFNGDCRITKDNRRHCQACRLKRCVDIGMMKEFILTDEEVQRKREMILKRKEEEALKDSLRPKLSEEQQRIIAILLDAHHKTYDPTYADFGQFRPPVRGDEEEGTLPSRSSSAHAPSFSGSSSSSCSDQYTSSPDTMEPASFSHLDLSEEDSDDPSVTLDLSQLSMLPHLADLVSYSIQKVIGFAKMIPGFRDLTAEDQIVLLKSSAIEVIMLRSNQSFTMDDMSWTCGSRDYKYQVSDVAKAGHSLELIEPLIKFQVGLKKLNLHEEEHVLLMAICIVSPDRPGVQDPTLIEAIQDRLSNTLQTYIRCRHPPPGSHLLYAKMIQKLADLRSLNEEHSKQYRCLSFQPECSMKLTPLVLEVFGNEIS
As to the kind of experiment: calcitriol-receptor test (competition with 3H-calcitriol). The format is binding, pig. As to conditions: KF = concentration of test substance / concentration of calcitriol at 50% competition.
Procedure: It is carried out using a specific receptor protein from the intestines of juvenile pigs.
250 μl of a charcoal-dextran suspension is fed to each test tube and incubated at 4° C. for 20 minutes. Then, the samples are centrifuged at 10,000×g for 5 minutes at 4° C. The supernatant is decanted and measured in a β-counter after 1 hour of equilibration in Picofluor 15™.
It is defined as a quotient of the concentrations of the respective test substance and the reference substance, which are necessary for 50% competition:
KF=Concentration of test substance at 50% competition/Concentration of reference substance at 50% competition

Data set [4] can be described thus: acute hypercalcemic action in rats (serum calcium). The format is in vivo. As to conditions: one-time subcutaneous administration, DR = test substance dose / calcitriol dose for comparable actions. The method, then: To determine the acute hypercalcemic action of various calcitriol derivatives, the test that is described below is carried out:
During the testing time, the rats are kept in special cages to determine the excretion of water and mineral substances. Urine is collected in 2 fractions (0-16 hours and 16-22 hours). An oral dose of calcium (0.1 mmol of calcium in 6.5% alpha-hydroxypropylcellulose, 5 ml/animal) replaces at 1600 hours the calcium intake that is lacking by food deprivation. At the end of the test, the animals are killed by decapitation and exsanguinated to determine the serum-calcium values. For the primary screen test in vivo, an individual standard dose (200 μg/kg) is tested. For selected substances, the result is supported by establishing a dose-effect relation.
A hypercalcemic action is shown in serum-calcium level values that are higher than in the control.
The significance of differences between substance groups and controls and between test substance and reference substance are supported with suitable statistical processes.

On to `C=C1C(=CC=C2CCCC3(C)C2CCC3C(C)C=CC(O)C2(c3ncc(CCCCC)o3)CC2)CC(O)CC1O` [Compound 17, (5Z,7E,22E)-(1S,3R,24R)-25-(5-pentyloxazol-2-yl)-26,27-cyclo-9,10-secocholesta-5,7,10(19),22-tetraene-1,3,24-triol], for which the “Dose Ratio for Differentiation Induction in HL 60 Cells” value in the data set with HL 60 cells [1] is recorded as over 100. Besides, the “antagonism of the action of calcitriol in HL 60 cells” value with HL 60 cells [2] is “antagonize the action of calcitriol”. In addition, the “Competition Factor KF for Receptor Bonding” value (“Competition Factor KF” below) in data set [3] came to 4.
Consider `C=C1C(=CC=C2CCCC3(C)C2CCC3C(C)C=CC(O)C2(c3ncc(C)o3)CC2)CC(O)CC1O` [Compound 15, (5Z,7E,22E)-(1S,3R,24R)-25-(5-methyloxazol-2-yl)-26,27-cyclo-9,10-secocholesta-5,7,10(19),22-tetraene-1,3,24-triol], for which the “Dose Ratio for Differentiation Induction in HL 60 Cells” value in the data set on HL 60 cells [1] came out at 3.4. The “Competition Factor KF” value in data set [3] is given as 2.
For the compound `C=C1/C(=C\C=C2/CCC[C@]3(C)[C@@H]([C@H](C)/C=C/[C@@H](O)C4(c5ncc(CCC)o5)CC4)CC[C@@H]23)C[C@@H](O)C[C@@H]1O` [Compound 14, (5Z,7E,22E)-(1S,3R,24R)-25-(5-Propyloxazol-2-yl)-26,27-cyclo-9,10-secocholesta-5,7,10(19),22-tetraene-1,3,24-triol], the “Dose Ratio for Differentiation Induction in HL 60 Cells” value with HL 60 cells [1] is given as 1.9. Also, in data set [4], the “dose ratio DR for hypercalcemia” value is 300. In data set [3], the “Competition Factor KF” value amounted to 2.
`C=C1/C(=C\C=C2/CCC[C@]3(C)[C@@H]([C@H](C)/C=C/[C@@H](O)C4(c5ncc(CC)o5)CC4)CC[C@@H]23)C[C@@H](O)C[C@@H]1O` [Compound 16, (5Z,7E,22E)-(1S,3R,24R)-25-(5-ethyloxazol-2-yl)-26,27-cyclo-9,10-secocholesta-5,7,10(19),22-tetraene-1,3,24-triol]: the “Dose Ratio for Differentiation Induction in HL 60 Cells” value with HL 60 cells [1] is listed as 1.3. Moreover, in the data set on HL 60 cells [2], the “antagonism of the action of calcitriol in HL 60 cells” value is recorded as “antagonize the action of calcitriol”. In data set [3], the “Competition Factor KF” value stood at 3.
